Laboratory results taken from PMC8844826 (iScience, 2022).
Peptide text beside a SMILES is read from it.

Legend:
full length PSD-95 [1] = molecular target: T1, full length PSD-95 (Homo sapiens, UniProt P78352); experiment: SDS-PAGE sedimentation assay with PSD-95; type: biochemical; conditions: SDS-PAGE sedimentation and quantification; n = 3
T1 construct: FL-PSD-95 (32M3C-PSD-95 FL 1-724); made in house; host or cells: E. coli BL21-DE3-pLysS
Procedure: (§1) Proteins were all mixed in the desired concentration in PBS-TCEP and equilibrated for 10 min before centrifugation at 20,000 g for 15 min at 25°C using a temperature-controlled table top centrifuge. Following centrifugation, the supernatant was collected and the pellet was re-suspended in an equal amount of PBS-TCEP, usually 50 μL. To ensure proper suspension of LLPS samples were vortexed before addition of SDS buffer boiling at 95°C for 5 min. Supernatant and pellet fractions were run on any kD Mini-PROTEAN TGX Precast Protein Gels (10 or 15 wells, BioRad 4569036 or 4569033). Gels were imaged using a Li-COR Odyssey gel scanner and band intensities were analyzed using ImageJ. Significance was evaluated using one-way ANOVA with Dunnett post-test, one-way ANOVA with Tukey post-test or a two-way ANOVA with Dunnett post-test.

PSD-95 = experiment: confocal microscopy of LLPS droplets of fluorescently labeled PSD-95; type: biochemical, human; conditions: peptide 36 μM, Alexa 633-PSD-95 30 nM labeled/3 μM unlabeled, validated by SDS-PAGE sedimentation
Procedure: (§2) Confocal microscopy was done using a Zeiss LSM780 using a 63x NA 1.4 plan apochromat oil objective using Argon 488 nm 25 mW, 543 nm HeNe 1.2 mW and 633 nm HeNe 5mW lasers using a detection wavelength of 490-538 nm for the 488 channel, 556-627 nm for the 543 channel, 636-758 for the 633 channel. Images were acquired using averaging of four line scans and 12-bit. The LLPS droplets were prepared in the desired concentration in PBS-TCEP at desired pH, mostly pH 7.4 unless stated otherwise, and added to an untreated lab tec (155411PK, Nunc, ThermoFischer) and imaged after being allowed to settle for 15 min at 25°C. For samples containing fluorescent protein or peptide the content of fluorescent protein or peptide was kept at 1-10% of indicated total protein or peptide concentration.

[2] = tested on: ePSD (PSD-95, Homer3, Shank3, GKAP, SynGAP); experiment: SDS-PAGE sedimentation assay with ePSD; type: biochemical; conditions: n = 3; for promotion of LLPS of ePSD: SDS-PAGE sedimentation and quantification, ePSD incubated with indicated peptides; for LLPS induction in the PSD-95 containing ePSD: peptide 10 μM and 100 μM
Procedure: as §1

ePSD = experiment: confocal microscopy of ePSD LLPS droplets; type: biochemical
Procedure: as §2

15N-PDZ1-2 of PSD-95 = experiment: 1H-15N-HSQC NMR chemical shift perturbation; type: binding; conditions: 512 μM StgA222-R236/128 μM 15N-PDZ1-2; 50 mM Tris pH 8, 200 mM NaCl, 1 mM TCEP, 25°C
Procedure: All NMR spectra were recorded on 600 MHz or 750 MHz Bruker Avance III HD spectrometers equipped with QCI or TCI cryo-probes at 25°C in 50 mM Tris pH 8, 200 mM NaCl, 1 mM TCEP, 10% D2O and 250 μM DSS. Spectra were processed with NMRPipe ([Delaglio et al., 1995]) or qMDD ([Kazimierczuk and Orekhov, 2011]) if non-uniform sampling was used for the acquisition and analyzed using CCPNMR analysis ([Skinner et al., 2016]). Amide nitrogen and proton chemical shift assignments were kindly shared by Prof. […] Combined chemical shift perturbations were calculated between the unbound and the bound states using.

full length PSD-95 [3] = molecular target: T1, full length PSD-95; experiment: competitive fluorescence polarization (FP) binding to full length PSD-95, tracer AB-143; conditions: Ki,app
[4] = SDS-PAGE sedimentation, ePSD 3 μM

T1 sequence (P78352 whole entry): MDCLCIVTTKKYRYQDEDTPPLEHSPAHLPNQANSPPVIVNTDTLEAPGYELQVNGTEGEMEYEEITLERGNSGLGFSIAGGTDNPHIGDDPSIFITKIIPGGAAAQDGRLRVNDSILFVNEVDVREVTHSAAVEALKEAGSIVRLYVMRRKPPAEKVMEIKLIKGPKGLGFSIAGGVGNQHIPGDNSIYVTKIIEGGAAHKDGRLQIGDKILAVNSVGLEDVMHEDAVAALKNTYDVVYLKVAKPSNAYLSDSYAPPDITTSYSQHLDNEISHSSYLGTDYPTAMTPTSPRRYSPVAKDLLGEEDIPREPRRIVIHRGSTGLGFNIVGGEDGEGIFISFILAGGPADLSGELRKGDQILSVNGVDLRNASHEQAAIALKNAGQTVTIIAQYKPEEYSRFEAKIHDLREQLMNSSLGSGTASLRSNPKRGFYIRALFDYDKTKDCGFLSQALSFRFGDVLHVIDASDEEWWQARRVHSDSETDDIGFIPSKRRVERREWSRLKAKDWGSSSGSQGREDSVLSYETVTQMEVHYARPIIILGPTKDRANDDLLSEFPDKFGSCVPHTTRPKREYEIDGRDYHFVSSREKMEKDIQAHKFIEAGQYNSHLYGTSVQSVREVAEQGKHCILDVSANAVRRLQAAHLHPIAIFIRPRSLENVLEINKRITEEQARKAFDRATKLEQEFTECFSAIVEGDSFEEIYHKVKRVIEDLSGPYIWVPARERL

CC[C@H](C)[C@H](NC(=O)[C@H](CO)NC(=O)[C@H](CO)NC(=O)[C@H](CC(C)C)NC(=O)[C@H](CCCCN)NC(=O)[C@H](CCCNC(=N)N)NC(=O)[C@H](CCCNC(=N)N)NC(=O)[C@H](CCCNC(=N)N)NC(=O)[C@H](CCC(N)=O)NC(=O)[C@H](CCCNC(=N)N)NC(=O)[C@H](CCCNC(=N)N)NC(=O)[C@H](CCCCN)NC(=O)[C@H](CCCCN)NC(=O)[C@H](CCCNC(=N)N)NC(=O)CNC(=O)[C@@H](N)Cc1ccc(O)cc1)C(=O)N[C@@H](CCC(=O)O)C(=O)N[C@@H](CO)C(=O)N[C@@H](CC(=O)O)C(=O)N[C@H](C(=O)O)C(C)C [NA-1] (H-YGRKKRRQRRRKLSSIESDV-OH; N-terminus and C-terminus assumed)
LLPS induction for PSD-95 alone by known inhibitors (full length PSD-95 [1]): able | pH below which LLPS of PSD-95 is induced (PSD-95): below 7.4 pH | promotion of LLPS of ePSD [2]: able to promote LLPS | LLPS induction in the PSD-95 containing ePSD [2, 4]: could induce LLPS | LLPS once complexed with the ePSD (ePSD): induces LLPS

YGRKKRRQRRR-NPEG4-di-IETDV [AVLX-144]
pH below which LLPS of PSD-95 is induced (PSD-95): below 6.4 pH | LLPS induction in the PSD-95 containing ePSD [2, 4]: induced LLPS to a minor extent

YGRKKRRQRRR [TAT11]
promotion of LLPS of ePSD [2]: able to promote LLPS | LLPS induction of the ePSD ([2]; SDS-PAGE sedimentation, peptide 10 μM, ePSD 3 μM): induced LLPS | chemical shift perturbations in 1H-15N-HSQC (15N-PDZ1-2 of PSD-95): did not result in any chemical shift perturbations

CC[C@H](C)[C@H](NC(=O)[C@H](CO)NC(=O)[C@H](CO)NC(=O)[C@H](CC(C)C)NC(=O)[C@H](CCCCN)NC(=O)[C@H](CCCN=C(N)N)NC(=O)[C@H](CCCN=C(N)N)NC(=O)[C@H](CCCN=C(N)N)NC(=O)[C@H](CCC(N)=O)NC(=O)[C@H](CCCN=C(N)N)NC(=O)[C@H](CCCN=C(N)N)NC(=O)[C@H](CCCCN)NC(=O)[C@H](CCCCN)NC(=O)[C@H](CCCN=C(N)N)NC(=O)CNC(=O)[C@@H](N)Cc1ccc(O)cc1)C(=O)N[C@@H](CCC(=O)O)C(=O)N[C@@H](CO)C(=O)N[C@@H](CC(=O)O)C(=O)N[C@H](C(=O)O)C(C)C [NA-1] (H-YGRKKRRQRRRKLSSIESDV-OH)
Ki (full length PSD-95 [3]; pH 6.4, competitive FP, pH 6.4): 7.2 µM | Ki (full length PSD-95 [3]; pH 7.4, competitive FP, pH 7.4): 4.5 µM | Ki (full length PSD-95 [3]; pH 8.4, competitive FP, pH 8.4): 2.6 µM | Ki (full length PSD-95 [3]; pH 9.4, competitive FP, pH 9.4): 4.1 µM

YGRKKRRQRRR-NPEG4-di-IETAA [AVLX-144-AA]
effect on ePSD LLPS formation ([2]; SDS-PAGE sedimentation, ePSD 3 μM, compared with AVLX-144): largely compromised the ability to drive LLPS
